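48-hour exposure; five concentrations; linearly interpolated endpoints. TGI is the concentration that stops growth completely.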
Columns and labels:
Assay in all cases: NCI tumour cell line growth inhibition, 48 h
U251 CNS = test system: U251 CNS
OVCAR-3 ovarian = test system: OVCAR-3 ovarian
CAKI-1 renal = test system: CAKI-1 renal
HOP-18 NSCLC = test system: HOP-18 NSCLC
RPMI-8226 leukemia = test system: RPMI-8226 leukemia
OVCAR-5 ovarian = test system: OVCAR-5 ovarian
OVCAR-4 ovarian = test system: OVCAR-4 ovarian
RXF 393 renal = test system: RXF 393 renal
HCC-2998 colon = test system: HCC-2998 colon
ACHN renal = test system: ACHN renal
MALME-3M melanoma = test system: MALME-3M melanoma
UACC-257 melanoma = test system: UACC-257 melanoma
A549 NSCLC = test system: A549 NSCLC
HOP-92 NSCLC = test system: HOP-92 NSCLC
SK-MEL-5 melanoma = test system: SK-MEL-5 melanoma
HOP-62 NSCLC = test system: HOP-62 NSCLC
TK-10 renal = test system: TK-10 renal
BT-549 breast = test system: BT-549 breast
MDA-MB-231 breast = test system: MDA-MB-231 breast
SK-MEL-28 melanoma = test system: SK-MEL-28 melanoma

Structure (SMILES) | TGI (U251 CNS) | TGI (OVCAR-3 ovarian) | TGI (CAKI-1 renal) | TGI (HOP-18 NSCLC) | TGI (RPMI-8226 leukemia) | TGI (OVCAR-5 ovarian) | TGI (OVCAR-4 ovarian) | TGI (RXF 393 renal) | TGI (HCC-2998 colon) | TGI (ACHN renal) | TGI (MALME-3M melanoma) | TGI (UACC-257 melanoma) | TGI (A549 NSCLC) | TGI (HOP-92 NSCLC) | TGI (SK-MEL-5 melanoma) | TGI (HOP-62 NSCLC) | TGI (TK-10 renal) | TGI (BT-549 breast) | TGI (MDA-MB-231 breast) | TGI (SK-MEL-28 melanoma)
CCOc1ccc(C(C)c2cc3c(cc2OC)OCO3)cc1 (stereo unspecified) | > 100 µM | 27.7 µM | > 100 µM | > 100 µM | 22.2 µM | > 100 µM | > 100 µM | 0.539 µM | 12.1 µM | > 100 µM | 89.7 µM | 52.8 µM | 90.8 µM | 9.93 µM | 1.15 µM | 23.1 µM | > 100 µM | – | – | –
CN1Cc2cc(O)c(O)cc2C(O)C1 (stereo unspecified) | > 100 µM | > 100 µM | > 100 µM | – | > 100 µM | > 100 µM | > 100 µM | > 100 µM | > 100 µM | > 100 µM | > 100 µM | > 100 µM | > 100 µM | > 100 µM | > 100 µM | > 100 µM | > 100 µM | > 100 µM | > 100 µM | > 100 µM

Reference: PubChem BioAssay (NCI)
